In patent US20240287048A1, “SUBSTITUTED ACYL SULFONAMIDES FOR TREATING CANCER” (The Broad Institute, Inc., priority 2020, published 2024):

Assays:
[1] = target: T1, KAT6A (Homo sapiens, UniProt Q92794); experiment: Kat6a activity assay (TR-FRET, acetylation of biotinylated histone H4 peptide); assay type: biochemical; conditions: recombinant human His-tagged Kat6a (amino acids 194-810), 60 mins at 22° C., read-out: KAT6A-DPF/HAT domain IC50 [mol/l] (arithmetic mean)
T1 construct: Recombinant human His-tagged Kat6a protein (amino acids 194-810); His; made in house; host or cells: Baculovirus-infected Sf9 insect cells
T1 sequence (Q92794 194-810): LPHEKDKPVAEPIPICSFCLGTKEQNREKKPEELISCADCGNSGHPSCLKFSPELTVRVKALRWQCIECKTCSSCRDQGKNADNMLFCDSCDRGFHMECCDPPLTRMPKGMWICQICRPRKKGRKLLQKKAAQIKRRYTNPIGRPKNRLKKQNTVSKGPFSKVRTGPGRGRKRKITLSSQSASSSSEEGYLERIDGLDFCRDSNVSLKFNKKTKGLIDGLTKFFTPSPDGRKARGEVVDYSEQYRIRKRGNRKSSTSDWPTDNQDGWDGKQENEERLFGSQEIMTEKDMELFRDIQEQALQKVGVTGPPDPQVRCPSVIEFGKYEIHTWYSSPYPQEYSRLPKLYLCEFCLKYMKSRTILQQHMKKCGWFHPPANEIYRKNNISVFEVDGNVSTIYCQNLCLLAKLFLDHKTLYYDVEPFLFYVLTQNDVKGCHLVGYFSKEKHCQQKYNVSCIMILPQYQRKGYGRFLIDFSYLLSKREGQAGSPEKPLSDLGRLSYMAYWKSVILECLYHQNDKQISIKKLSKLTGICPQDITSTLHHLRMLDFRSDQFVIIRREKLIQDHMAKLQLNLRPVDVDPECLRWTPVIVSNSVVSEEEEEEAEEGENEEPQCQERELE
Text: Kat6a inhibitory activities of the compounds described in the present invention were quantified using a Fluorescence Resonance Energy Transfer (TR-FRET) assay which measures acetylation of a synthetic, biotinylated Histone-H4-derived peptide by the enzyme.
Recombinant human His-tagged Kat6a protein (amino acids 194-810), was purified in-house from Baculovirus-infected insect cells (Sf9). Histone H4 peptide (amino acids 1-24, […]-VLRD-K(Btn)-amide), which was used as substrate, was synthesized by Biosyntan GmbH, Berlin, Germany. Acetyl Coenzyme A was purchased from Sigma-Aldrich (#A-2056).
Kat6a was incubated for 60 mins at 22° C. in the presence of different concentrations of test substances (0 μM, and within the range 0.01-20 μM) in assay buffer [25 mM Tris/HCl pH 8, 1 mM EGTA, 2.5 mM Glutathion, 0.02% Chicken Albumin, 0.05% Pluronic F127, 25 mM NaCl, 220 nM H4 peptide and 600 nM Acetyl Coenzyme A].
The reaction was stopped by addition of Detection Solution (25 mM HEPES pH 7.5, 0.1% BSA, 22 nM SAXL665 (Cisbio #610SAXLE), 100 μM Anacardic Acid (Enzo #ALX-270-381), 1 nM Anti-Histone H4 (ACETYL K8) Antibody (ABCAM #AB15823) and 0.5 nM Anti-Rabbit IgG Eu (Perkin Elmer #AD0083).
The fluorescence emission at 620 nm and 665 nm after excitation at 330-350 nm was measured in a TR-FRET measuring instrument, for instance a Rubystar or a Pherastar (both from BMG Lab Technologies, Offenburg, Germany) or a Viewlux (Perkin-Elmer). The ratio of the emission at 665 nm and at […] was used as indicator of the amount of acetylated peptide.
The resulting data (ratio) were normalized, taking 0% inhibition as the mean value of control measurements where all reagents were included. In this case 50 nl DMSO were used instead of compounds. […] IC50 values were determined by regression analysis based on a 4 parameter equation (minimum, maximum, ICM, Hill; Y=Max+(Min−Max)/(1+(X/ICso) Hill) using the Screener Software (Genedata).

[2] = test system: ESR1 transcription in MVLN cells; experiment: Repression of ESR1 transcription, MVLN luciferase reporter assay; assay type: cell-based; conditions: Homo sapiens, luciferase signal after 24 h, read-out: MVLN reporter assay, IC50[M] (arithmetic mean)
Text: KAT6A controls transcription of the ESR1 gene in breast cancer cells. Compound treatment that interferes with this mechanism was quantified using MVLN cells. These cells constitutively express the ER and are stably transfected with the luciferase (LUC) reporter gene and the corresponding hormone responsive element derived from the 5′-flanking region of the Xenopus Vitellogenin A2 gene (Pons et al., 1990, Demirpense et al., 1993, Joyeux et al., 1993). The repressive effect on ERα transcription activity of a test chemical is directly related to the luciferase measured in the lysate of treated MVLN cells.
Each sample was prepared as duplicate and rim wells were excluded. For luciferase signal determination 100 μl of a 1:1 mixture of Steadylite plus (Perkin Elmer; 6016759) and assay medium was added after 24 h for 15 minutes and measured in Victor X3 (Perkin Elmer). To exclude any effects caused by cell loss during the treatment, cell density was determined using Alamar Blue (Invitrogen; DAL1100). Prior to the luciferase measurement 10 μl Alamar Blue were added to each well and the plates were incubated for 2 h in the incubator. Then fluorescence was measured with Victor X3 (Perkin Elmer) at 530 nm/590 nm.

IC50 [1]	IC50 [2]	Compound
106 nM	1.7e-06 M	CCOc1c(F)cccc1S(=O)(=O)NC(=O)c1cc2c(F)cc(C3CC3)cc2o1 [Example 28, 6-Cyclopropyl-N-(2-ethoxy-3-fluoro-phenyl)sulfonyl-4-fluoro-benzofuran-2-carboxamide]
37.3 nM	2.84e-07 M	CCOc1cc(F)ccc1S(=O)(=O)NC(=O)c1cc2c(F)cc(C3CC3)cc2o1 [Example 30, 6-Cyclopropyl-N-(2-ethoxy-4-fluoro-phenyl)sulfonyl-4-fluoro-benzofuran-2-carboxamide]
8.99 nM	2.31e-07 M	CCOc1ccc(C(F)(F)F)cc1S(=O)(=O)NC(=O)c1cc2c(F)cc(C3CC3)cc2o1 [Example 31, 6-Cyclopropyl-N-[2-ethoxy-5-(trifluoromethyl)phenyl]sulfonyl-4-fluoro-benzofuran-2-carboxamide]
55.6 nM	4.23e-07 M	CCOc1ccc(F)cc1S(=O)(=O)NC(=O)c1cc2c(F)cc(C3CC3)cc2o1 [Example 32, 6-Cyclopropyl-N-(2-ethoxy-5-fluoro-phenyl)sulfonyl-4-fluoro-benzofuran-2-carboxamide]
6.32 nM	1.74e-06 M	CCOc1ccc(Oc2ccccc2)cc1S(=O)(=O)NC(=O)c1cc2c(F)cc(C3CC3)cc2o1 [Example 33, 6-Cyclopropyl-N-(2-ethoxy-5-phenoxy-phenyl)sulfonyl-4-fluoro-benzofuran-2-carboxamide]
20.8 nM	1.42e-06 M	CCOc1ccc(OC(F)(F)F)cc1S(=O)(=O)NC(=O)c1cc2c(F)cc(C3CC3)cc2o1 [Example 34, 6-Cyclopropyl-N-[2-ethoxy-5-(trifluoromethoxy)phenyl]sulfonyl-4-fluoro-benzofuran-2-carboxamide]
5.99 nM	2.19e-07 M	CC(C)c1ccc(OCc2ccccc2)c(S(=O)(=O)NC(=O)c2cc3c(F)cc(C4CC4)cc3o2)c1 [Example 35, N-(2-Benzyloxy-5-isopropyl-phenyl)sulfonyl-6-cyclopropyl-4-fluoro-benzofuran-2-carboxamide]
3.01 nM	1.41e-07 M	CC(C)c1ccc(OCC2CC2)c(S(=O)(=O)NC(=O)c2cc3c(F)cc(C4CC4)cc3o2)c1 [Example 36, 6-Cyclopropyl-N-[2-(cyclopropylmethoxy)-5-isopropyl-phenyl]sulfonyl-4-fluoro-benzofuran-2-carboxamide]
24.8 nM	6.63e-07 M	CCCOc1ccccc1S(=O)(=O)NC(=O)c1cc2c(F)cc(C3CC3)cc2o1 [Example 40, 6-Cyclopropyl-4-fluoro-N-(2-propoxyphenyl)sulfonyl-benzofuran-2-carboxamide]
4.99 nM	2.98e-07 M	CC(C)c1ccc(OCC(F)(F)F)c(S(=O)(=O)NC(=O)c2cc3c(F)cc(C4CC4)cc3o2)c1 [Example 41, 6-Cyclopropyl-4-fluoro-N-[5-isopropyl-2-(2,2,2-trifluoroethoxy)phenyl]sulfonyl-benzofuran-2-carboxamide]
148 nM	1.77e-05 M	O=C(NS(=O)(=O)c1ccccc1)c1cc2c(OC(F)F)cc(C3CC3)cc2o1 [Example 46, N-(benzenesulfonyl)-6-cyclopropyl-4-(difluoromethoxy)benzofuran-2-carboxamide]
26.7 nM	5.54e-06 M	O=C(NS(=O)(=O)c1ccccc1-c1ccccc1)c1cc2c(OC(F)F)cc(C3CC3)cc2o1 [Example 48, 6-Cyclopropyl-4-(difluoromethoxy)-N-(2-phenylphenyl)sulfonyl-benzofuran-2-carboxamide]
28.6 nM	6.97e-06 M	CCOc1ccccc1S(=O)(=O)NC(=O)c1cc2c(OC(F)F)cc(C3CC3)cc2o1 [Example 49, 6-Cyclopropyl-4-(difluoromethoxy)-N-(2-ethoxyphenyl)sulfonyl-benzofuran-2-carboxamide]
39.5 nM	> 2e-05 M	CCOc1ccccc1S(=O)(=O)NC(=O)c1cc2c(-n3ccnc3)cc(C3CC3)cc2o1 [Example 58, 6-Cyclopropyl-N-(2-ethoxyphenyl)sulfonyl-4-imidazol-1-yl-benzofuran-2-carboxamide]
3.58 nM	1.04e-07 M	CC(C)(C)c1ccc(OC2CC2)c(S(=O)(=O)NC(=O)c2cc3c(F)cc(C4CC4)cc3o2)c1 [Example 59, N-((5-(tert-butyl)-2-cyclopropoxyphenyl)sulfonyl)-6-cyclopropyl-4-fluorobenzofuran-2-carboxamide]
2.67 nM	8.24e-08 M	CC(C)(C)c1ccc(OCc2ccccc2)c(S(=O)(=O)NC(=O)c2cc3c(F)cc(C4CC4)cc3o2)c1 [Example 60, N-[(2-(Benzyloxy)-5-(tert-butyl)phenyl)sulfonyl]-6-cyclopropyl-4-fluorobenzofuran-2-carboxamide]
2.92 nM	1.11e-07 M	CC(C)(C)c1ccc(OCC2CC2)c(S(=O)(=O)NC(=O)c2cc3c(F)cc(C4CC4)cc3o2)c1 [Example 61, N-((5-(tert-butyl)-2-(cyclopropylmethoxy)phenyl)sulfonyl)-6-cyclopropyl-4-fluorobenzofuran-2-carboxamide]
4.16 nM	2.4e-07 M	CC(C)(C)c1ccc(OCC(F)(F)F)c(S(=O)(=O)NC(=O)c2cc3c(F)cc(C4CC4)cc3o2)c1 [Example 62, N-((5-(tert-butyl)-2-(2,2,2-trifluoroethoxy)phenyl)sulfonyl)-6-cyclopropyl-4-fluorobenzofuran-2-carboxamide]
4.33 nM	1.76e-07 M	CC(C)Oc1ccc(C(C)(C)C)cc1S(=O)(=O)NC(=O)c1cc2c(F)cc(C3CC3)cc2o1 [Example 64, N-((5-(tert-Butyl)-2-isopropoxyphenyl)sulfonyl)-6-cyclopropyl-4-fluorobenzofuran-2-carboxamide]
4.5 nM	8.29e-08 M	CC(C)c1ccc(OCC2CC2(F)F)c(S(=O)(=O)NC(=O)c2cc3c(F)cc(C4CC4)cc3o2)c1 (stereo not shown) [Example 67, 6-Cyclopropyl-N-{(2-[(2,2-difluorocyclopropyl)methoxy)-5-isopropylphenyl]sulfonyl}-4-fluorobenzofuran-2-carboxamide]
4.79 nM	1.23e-07 M	CCOc1ccc(C(C)C)cc1S(=O)(=O)NC(=O)c1cc2c(F)cc(C3CC3)cc2o1 [Example 72, 6-Cyclopropyl-N-(2-ethoxy-5-isopropyl-phenyl)sulfonyl-4-fluoro-benzofuran-2-carboxamide]

Compound	IC50 [1]	IC50 [2]
CC(C)(C)c1ccc(OC2CCC2)c(S(=O)(=O)NC(=O)c2cc3c(F)cc(C4CC4)cc3o2)c1 [Example 63, N-((5-(tert-Butyl)-2-cyclobutoxyphenyl)sulfonyl)-6-cyclopropyl-4-fluorobenzofuran-2-carboxamide]	2.46 nM	2.24e-07 M
CC(C)c1ccc(OC2CCC2)c(S(=O)(=O)NC(=O)c2cc3c(F)cc(C4CC4)cc3o2)c1 [Example 65, N-[(2-Cyclobutoxy-5-isopropylphenyl)sulfonyl]-6-cyclopropyl-4-fluorobenzofuran-2-carboxamide]	2.09 nM	1.49e-07 M
